In patent US20160333419A1, “GENE SIGNATURES ASSOCIATED WITH SENSITIVITY TO MDM2 INHIBITORS” (DAIICHI SANKYO COMPANY, LIMITED, priority 2014, published 2016):

How the values were obtained:
Test in all cases: OncoPanel cytotoxicity assay
Format in all cases: cell-based
A101D = settings: Homo sapiens, 72 hour incubation
Procedure: (§1) Cells were grown in RPMI 1640, 10% FBS, 2 mM L-alanyl-L-Glutamine, 1 mM Na Pyruvate, or a special medium in a humidified atmosphere of 5% CO2 at 37° C. Cells were seeded into 384-well plates and incubated in a humidified atmosphere of 5% CO2 at 37° C. Test compounds were added 24 hours post cell seeding. At the same time, a time zero, untreated cell plate was generated as a control. After a 72 hour incubation period, cells were fixed and stained with nuclear dye to allow visualization of nuclei.
(§2) Compounds were serially diluted 3.16-fold and assayed over 10 concentrations of inhibitor in a final assay concentration of 0.1% DMSO from the highest test concentration specified in the sample information chapter. Automated fluorescence microscopy was carried out using a GE Healthcare InCell Analyzer 1000, and images were collected with a 4× objective. Twelve bit tiff images were acquired using the InCell Analyzer 1000 3.2 and analyzed with Developer Toolbox 1.6 software.
(§3) Cell proliferation was measured by the signal intensity of the incorporated nuclear dye. The cell proliferation assay output is referred to as the relative cell count. To determine the cell proliferation end point, the cell proliferation data output is transformed to percent of control (POC) using the following formula: […]
(§4) Relative cell count IC50 (IC50) is the test compound's concentration that produces 50% of the cell proliferation inhibitory response or 50% cytotoxicity level. IC50 values were calculated using nonlinear regression to fit data to a sigmoidal 4 point, 4 parameter One-Site dose response model, where: y (fit)=A+[(B−A)/(1+((C/x)̂D))]. Curve-fitting, IC50 calculations and report generation were performed using a custom data reduction engine MathIQ based software (AIM). […] In these cases, the IC50 values were expressed as 40 μM and 10 μM, respectively (Table 2).

A375 = settings: Homo sapiens, A-375, 72 hour incubation
Procedure: as §1, §2, §3, §4

A498 = settings: Homo sapiens, 72 hour incubation
Procedure: as §1, §2, §3, §4

ACHN = settings: Homo sapiens, 72 hour incubation
Procedure: as §1, §2, §3, §4

ARH-77 = settings: Homo sapiens, 72 hour incubation
Procedure: as §1, §2, §3, §4

BE(2)C = settings: Homo sapiens, 72 hour incubation
Procedure: as §1, §2, §3, §4

C32 = settings: Homo sapiens, 72 hour incubation
Procedure: as §1, §2, §3, §4

CAL-62 = settings: Homo sapiens, 72 hour incubation
Procedure: as §1, §2, §3, §4

CRO-AP2 = settings: Homo sapiens, 72 hour incubation
Procedure: as §1, §2, §3, §4

Colo 320 HSR = settings: Homo sapiens, 72 hour incubation
Procedure: as §1, §2, §3, §4

Colo 320DM = settings: Homo sapiens, 72 hour incubation
Procedure: as §1, §2, §3, §4

DLD-1 = settings: Homo sapiens, 72 hour incubation
Procedure: as §1, §2, §3, §4

DMS53 = settings: Homo sapiens, DMS-53, 72 hour incubation
Procedure: as §1, §2, §3, §4

Detroit 562 = settings: Homo sapiens, 72 hour incubation
Procedure: as §1, §2, §3, §4

EB-3 = settings: Homo sapiens, 72 hour incubation
Procedure: as §1, §2, §3, §4

ES-2 = settings: Homo sapiens, 72 hour incubation
Procedure: as §1, §2, §3, §4

G-401 = settings: Homo sapiens, 72 hour incubation
Procedure: as §1, §2, §3, §4

HeLa = settings: Homo sapiens, 72 hour incubation
Procedure: as §1, §2, §3, §4

JAR = settings: Homo sapiens, 72 hour incubation
Procedure: as §1, §2, §3, §4

KATO III = settings: Homo sapiens, 72 hour incubation
Procedure: as §1, §2, §3, §4

KHOS-240S = settings: Homo sapiens, 72 hour incubation
Procedure: as §1, §2, §3, §4

LS1034 = settings: Homo sapiens, LS-1034, 72 hour incubation
Procedure: as §1, §2, §3, §4

MALME3M = settings: Homo sapiens, Malme-3M, 72 hour incubation
Procedure: as §1, §2, §3, §4

MDA MB 231 = settings: Homo sapiens, 72 hour incubation
Procedure: as §1, §2, §3, §4

MEG01 = settings: Homo sapiens, MEG-01, 72 hour incubation
Procedure: as §1, §2, §3, §4

NCI-H460 = settings: Homo sapiens, 72 hour incubation
Procedure: as §1, §2, §3, §4

OVCAR3 = settings: Homo sapiens, OVCAR-3, 72 hour incubation
Procedure: as §1, §2, §3, §4

RKOE6 = settings: Homo sapiens, 72 hour incubation
Procedure: as §1, §2, §3, §4

SHP-77 = settings: Homo sapiens, SHP77, 72 hour incubation
Procedure: as §1, §2, §3, §4

SJSA1 = settings: Homo sapiens, SJSA-1, 72 hour incubation
Procedure: as §1, §2, §3, §4

SK-N-AS = settings: Homo sapiens, 72 hour incubation
Procedure: as §1, §2, §3, §4

SK-N-DZ = settings: Homo sapiens, 72 hour incubation
Procedure: as §1, §2, §3, §4

SK-UT-1 = settings: Homo sapiens, 72 hour incubation
Procedure: as §1, §2, §3, §4

SW579 = settings: Homo sapiens, 72 hour incubation
Procedure: as §1, §2, §3, §4

SW962 = settings: Homo sapiens, SW 962, 72 hour incubation
Procedure: as §1, §2, §3, §4

SiHa = settings: Homo sapiens, 72 hour incubation
Procedure: as §1, §2, §3, §4

T24 = settings: Homo sapiens, T-24, 72 hour incubation
Procedure: as §1, §2, §3, §4

Thp1 = settings: Homo sapiens, THP-1, 72 hour incubation
Procedure: as §1, §2, §3, §4

## CC[C@@H]1CNC2(CC2)CN1C(=O)[C@@H]1C[C@@H](F)CN1C(=O)C1=C(C(C)C)N2C(=N[C@@](C)(c3ccc(Cl)nc3)[C@H]2c2ccc(Cl)c(F)c2)S1 [Compound A, [(5R,6S)-5-(4-Chloro-3-fluorophenyl)-6-(6-chloropyridin-3-yl)-6-methyl-3-(propan-2-yl)-5,6-dihydroimidazo[2,1-b][1,3]thiazol-2-yl][(2S,4R)-2-{[(6R)-6-ethyl-4,7-diazaspiro[2.5]oct-7-yl]carbonyl}-4-fluoropyrrolidin-1-yl]methanone]
A101D
  IC50: 0.233 µM
A375
  IC50: 0.317 µM
A498
  IC50: 1.71 µM
ACHN
  IC50: 1.07 µM
ARH-77
  IC50: > 40 µM
BE(2)C
  IC50: 35.3 µM
C32
  IC50: > 40 µM
CAL-62
  IC50: > 40 µM
CRO-AP2
  IC50: 0.204 µM
Colo 320 HSR
  IC50: > 40 µM
Colo 320DM
  IC50: > 40 µM
DLD-1
  IC50: > 40 µM
DMS53
  IC50: 38.4 µM
Detroit 562
  IC50: > 40 µM
EB-3
  IC50: > 40 µM
ES-2
  IC50: 14.5 µM
G-401
  IC50: 0.242 µM
HeLa
  IC50: > 40 µM
JAR
  IC50: 0.549 µM
KATO III
  IC50: 36.6 µM
KHOS-240S
  IC50: > 40 µM
LS1034
  IC50: > 40 µM
MALME3M
  IC50: 1.04 µM
MDA MB 231
  IC50: > 40 µM
MEG01
  IC50: > 40 µM
NCI-H460
  IC50: 0.515 µM
OVCAR3
  IC50: > 40 µM
RKOE6
  IC50: 38.2 µM
SHP-77
  IC50: > 40 µM
SJSA1
  IC50: 0.214 µM
SK-N-AS
  IC50: > 40 µM
SK-N-DZ
  IC50: > 40 µM
SK-UT-1
  IC50: > 40 µM
SW579
  IC50: > 40 µM
SW962
  IC50: > 40 µM
SiHa
  IC50: > 40 µM
T24
  IC50: > 40 µM
Thp1
  IC50: > 40 µM

## CC1(C)CCC2(CC1)N[C@@H](C(=O)N[C@@H]1CC[C@@H](C(N)=O)OC1)[C@H](c1ccnc(Cl)c1F)[C@]21C(=O)Nc2cc(Cl)ccc21 [Compound B, (3′R,4′S,5′R)—N-[(3R,6S)-6-carbamoyltetrahydro-2H-pyran-3-yl]-6″-chloro-4′-(2-chloro-3-fluoropyridin-4-yl)-4,4-dimethyl-2″-oxo-1″,2″-dihydrodispiro[cyclohexane-1,2′-pyrrolidine-3′,3″-indole]-5′-carboxamide]
A101D
  IC50: 0.0314 µM
A375
  IC50: 0.0434 µM
A498
  IC50: 0.119 µM
ACHN
  IC50: 0.174 µM
ARH-77
  IC50: 7.61 µM
BE(2)C
  IC50: 9.03 µM
C32
  IC50: > 10 µM
CAL-62
  IC50: > 10 µM
CRO-AP2
  IC50: 0.0191 µM
Colo 320 HSR
  IC50: > 10 µM
Colo 320DM
  IC50: > 10 µM
DLD-1
  IC50: 8.91 µM
DMS53
  IC50: > 10 µM
Detroit 562
  IC50: 7.74 µM
EB-3
  IC50: > 10 µM
ES-2
  IC50: 6.3 µM
G-401
  IC50: 0.0354 µM
HeLa
  IC50: > 10 µM
JAR
  IC50: 0.0861 µM
KATO III
  IC50: > 10 µM
KHOS-240S
  IC50: > 10 µM
LS1034
  IC50: > 10 µM
MALME3M
  IC50: 0.0875 µM
MDA MB 231
  IC50: > 10 µM
MEG01
  IC50: 9.7 µM
NCI-H460
  IC50: 0.0664 µM
OVCAR3
  IC50: > 10 µM
RKOE6
  IC50: 7.59 µM
SHP-77
  IC50: 8.32 µM
SJSA1
  IC50: 0.0261 µM
SK-N-AS
  IC50: 8.29 µM
SK-N-DZ
  IC50: > 10 µM
SK-UT-1
  IC50: > 10 µM
SW579
  IC50: 9.61 µM
SW962
  IC50: > 10 µM
SiHa
  IC50: > 10 µM
T24
  IC50: > 10 µM
Thp1
  IC50: > 10 µM
